From ChEMBL document CHEMBL4270599, “Synthesis of a 3'-C-ethynyl-β-d-ribofuranose purine nucleoside library: Discovery of C7-deazapurine analogs as potent antiproliferative nucleosides” (Eur J Med Chem, 2018)

Experiments:
Assay type in all cases: functional
EKVX = assay: Cytotoxicity against human EKVX cells after 48 hrs by SRB assay
NCI-H322M = assay: Cytotoxicity against human NCI-H322M cells after 48 hrs by SRB assay
NCI-H460 = assay: Cytotoxicity against human NCI-H460 cells after 48 hrs by SRB assay; details: NCI-H460, 48 h
HCT-15 = assay: Cytotoxicity against human HCT15 cells after 48 hrs by SRB assay; details: HCT-15, 48 h
SF-295 = assay: Cytotoxicity against human SF295 cells after 48 hrs by SRB assay; details: SF-295, 48 h
UACC-62 = assay: Cytotoxicity against human UACC62 cells after 48 hrs by SRB assay; details: UACC-62, 48 h
DU-145 = assay: Cytotoxicity against human DU145 cells after 48 hrs by SRB assay; details: DU-145, 48 h
NCI-H522 [1] = assay: Growth inhibition of human NCI-H522 cells assessed as cell growth at 10^-8 M incubated for 48 hrs by sulforhodamine B assay relative to control; details: NCI-H522, 48 h, read-out: Activity
KM12 [2] = assay: Growth inhibition of human KM12 cells assessed as cell growth at 10^-8 M incubated for 48 hrs by sulforhodamine B assay relative to control; details: KM12, 48 h, read-out: Activity
SW-620 [3] = assay: Growth inhibition of human SW620 cells assessed as cell growth at 10^-8 M incubated for 48 hrs by sulforhodamine B assay relative to control; details: SW-620, 48 h, read-out: Activity
SF-539 = assay: Growth inhibition of human SF539 cells assessed as cell growth at 10^-8 M incubated for 48 hrs by sulforhodamine B assay relative to control; details: SF-539, 48 h, read-out: Activity
SNB-75 = assay: Growth inhibition of human SNB75 cells assessed as cell growth at 10^-8 M incubated for 48 hrs by sulforhodamine B assay relative to control; details: SNB-75, 48 h, read-out: Activity
UO-31 [4] = assay: Growth inhibition of human UO31 cells assessed as cell growth at 10^-8 M incubated for 48 hrs by sulforhodamine B assay relative to control; details: UO-31, 48 h, read-out: Activity
CCRF-CEM = assay: Growth inhibition of human CCRF-CEM cells assessed as cell growth at 10^-7 M incubated for 48 hrs by sulforhodamine B assay relative to control; details: read-out: Activity
RPMI-8226 = assay: Growth inhibition of human RPMI8226 cells assessed as cell growth at 10^-7 M incubated for 48 hrs by sulforhodamine B assay relative to control; details: RPMI-8226, 48 h, read-out: Activity
A549 [5] = assay: Growth inhibition of human A549/ATCC cells assessed as cell growth at 10^-7 M incubated for 48 hrs by sulforhodamine B assay relative to control; details: A549, 48 h, read-out: Activity
NCI-H522 [6] = assay: Growth inhibition of human NCI-H522 cells assessed as cell growth at 10^-7 M incubated for 48 hrs by sulforhodamine B assay relative to control; details: NCI-H522, 48 h, read-out: Activity
SW-620 [7] = assay: Growth inhibition of human SW620 cells assessed as cell growth at 10^-7 M incubated for 48 hrs by sulforhodamine B assay relative to control; details: SW-620, 48 h, read-out: Activity
A498 = assay: Growth inhibition of human A498 cells assessed as cell growth at 10^-7 M incubated for 48 hrs by sulforhodamine B assay relative to control; details: A498, 48 h, read-out: Activity
PC-3 [8] = assay: Growth inhibition of human PC3 cells assessed as cell growth at 10^-7 M incubated for 48 hrs by sulforhodamine B assay relative to control; details: PC-3, 48 h, read-out: Activity
MOLT-4 = assay: Growth inhibition of human MOLT4 cells assessed as cell growth at 10^-6 M incubated for 48 hrs by sulforhodamine B assay relative to control; details: MOLT-4, 48 h, read-out: Activity
NCI-H23 = assay: Growth inhibition of human NCI-H23 cells assessed as cell growth at 10^-6 M incubated for 48 hrs by sulforhodamine B assay relative to control; details: NCI-H23, 48 h, read-out: Activity
KM12 [9] = assay: Growth inhibition of human KM12 cells assessed as cell growth at 10^-6 M incubated for 48 hrs by sulforhodamine B assay relative to control; details: KM12, 48 h, read-out: Activity
SK-MEL-2 = assay: Growth inhibition of human SK-MEL-2 cells assessed as cell growth at 10^-6 M incubated for 48 hrs by sulforhodamine B assay relative to control; details: SK-MEL-2, 48 h, read-out: Activity
NCI/ADR-RES [10] = assay: Growth inhibition of human NCI/ADR-RES cells assessed as cell growth at 10^-6 M incubated for 48 hrs by sulforhodamine B assay relative to control; details: read-out: Activity
RXF 393 = assay: Growth inhibition of human RXF393 cells assessed as cell growth at 10^-6 M incubated for 48 hrs by sulforhodamine B assay relative to control; details: RXF 393, 48 h, read-out: Activity
UO-31 [11] = assay: Growth inhibition of human UO31 cells assessed as cell growth at 10^-6 M incubated for 48 hrs by sulforhodamine B assay relative to control; details: UO-31, 48 h, read-out: Activity
PC-3 [12] = assay: Growth inhibition of human PC3 cells assessed as cell growth at 10^-5 M incubated for 48 hrs by sulforhodamine B assay relative to control; details: PC-3, 48 h, read-out: Activity
MDA-MB-231 = assay: Growth inhibition of human MDA-MB-231 cells assessed as cell growth at 10^-5 M incubated for 48 hrs by sulforhodamine B assay relative to control; details: MDA-MB-231, 48 h, read-out: Activity
NCI-H226 = assay: Growth inhibition of human NCI-H226 cells assessed as cell growth at 10^-4 M incubated for 48 hrs by sulforhodamine B assay relative to control; details: NCI-H226, 48 h, read-out: Activity
U-251 = assay: Growth inhibition of human U251 cells assessed as cell growth at 10^-4 M incubated for 48 hrs by sulforhodamine B assay relative to control; details: U-251, 48 h, read-out: Activity
NCI/ADR-RES [13] = assay: Growth inhibition of human NCI/ADR-RES cells assessed as cell growth at 10^-4 M incubated for 48 hrs by sulforhodamine B assay relative to control; details: read-out: Activity
A549 [14] = assay: Growth inhibition of human A549/ATCC cells assessed as cell growth at 10^-4 M incubated for 48 hrs by sulforhodamine B assay relative to control; details: A549, 48 h, read-out: Activity
[15] = read-out: pLC50 (the source's name) (converted)

## C#C[C@@]1(O)[C@@H](CO)O[C@@H](n2ccc3c(N)ncnc32)[C@@H]1O
EKVX; read-out: TGI
  TGI: 5.43 µM
EKVX; read-out: pGI50 (converted)
  GI50: 1.51 µM
EKVX; [15]
  CC50: > 100 µM
EKVX; read-out: pTGI (converted)
  TGI: 5.37 µM
NCI-H322M; read-out: TGI
  TGI: 6.08 µM
NCI-H322M; read-out: pGI50 (converted)
  GI50: 1.29 µM
NCI-H322M; [15]
  CC50: 50.1 µM
NCI-H322M; read-out: pTGI (converted)
  TGI: 6.03 µM
NCI-H460; read-out: TGI
  TGI: 10.6 µM
NCI-H460; read-out: pGI50 (converted)
  GI50: 0.468 µM
NCI-H460; [15]
  CC50: > 100 µM
NCI-H460; read-out: pTGI (converted)
  TGI: 10.7 µM
HCT-15; read-out: TGI
  TGI: 4.62 µM
HCT-15; read-out: pGI50 (converted)
  GI50: 0.891 µM
HCT-15; [15]
  CC50: > 100 µM
HCT-15; read-out: pTGI (converted)
  TGI: 4.57 µM
SF-295; read-out: TGI
  TGI: 5.33 µM
SF-295; read-out: pGI50 (converted)
  GI50: 1.74 µM
SF-295; [15]
  CC50: > 100 µM
SF-295; read-out: pTGI (converted)
  TGI: 5.37 µM
UACC-62; read-out: TGI
  TGI: 4.48 µM
UACC-62; read-out: pGI50 (converted)
  GI50: 1.78 µM
UACC-62; [15]
  CC50: 19.5 µM
UACC-62; read-out: pTGI (converted)
  TGI: 4.47 µM
DU-145; read-out: LC50 (the source's name)
  CC50: > 100 µM
DU-145; read-out: TGI
  TGI: 6.55 µM
DU-145; read-out: pGI50 (converted)
  GI50: 0.562 µM
DU-145; read-out: pTGI (converted)
  TGI: 6.61 µM
NCI-H522 [1]
  growth at 0.01 µM: 90%
KM12 [2]
  growth at 0.01 µM: 98%
SW-620 [3]
  growth at 0.01 µM: 72%
SF-539
  growth at 0.01 µM: 92%
SNB-75
  growth at 0.01 µM: 86%
UO-31 [4]
  growth at 0.01 µM: 94%
CCRF-CEM
  growth at 0.1 µM: 101%
RPMI-8226
  growth at 0.1 µM: 98%
A549 [5]
  growth at 0.1 µM: 107%
NCI-H522 [6]
  growth at 0.1 µM: 78%
SW-620 [7]
  growth at 0.1 µM: 77%
A498
  growth at 0.1 µM: 105%
PC-3 [8]
  growth at 0.1 µM: 97%
MOLT-4
  growth at 1 µM: 38%
NCI-H23
  growth at 1 µM: 57%
KM12 [9]
  growth at 1 µM: 67%
SK-MEL-2
  growth at 1 µM: 60%
NCI/ADR-RES [10]
  growth at 1 µM: 45%
RXF 393
  growth at 1 µM: 88%
UO-31 [11]
  growth at 1 µM: 69%
PC-3 [12]
  growth at 10 µM: -37%
MDA-MB-231
  growth at 10 µM: -20%
NCI-H226
  growth at 100 µM: -61%
U-251
  growth at 100 µM: -30%
NCI/ADR-RES [13]
  growth at 100 µM: -9%
A549 [14]
  growth at 100 µM: 3%
